“Also recorded” adds a separate entry of the source.
What was measured:
[1] = molecular target: T1, MBP-PB1-ZZ WT (p62 residues 1–181) (Homo sapiens, UniProt Q13501); assay: FP binding assay, MBP-PB1-ZZ WT
T1 construct: The PB1-ZZ-domain of p62 (residues 1–181) WT and various mutants were expressed as MBP-fused forms; made in house; host or cells: Escherichia coli BL21(DE3)
Experimental: The PB1-ZZ-domain of p62 (residues 1–181) WT and various mutants were expressed as MBP-fused forms. […] The ZZ-domain (residues 122–181) WT and various mutants were expressed as GST-fused forms.
FITC-labeled R-BiP/GRP78 peptide and all mutant peptides were dissolved to 1 mM concentration in buffers (50 mM MES pH 6.0 [or 50 mM Tris pH 8.0], 100 mM NaCl, and 1 mM DTT) and sequentially diluted with binding buffer up to 100 nM in each 40 μL reaction well. Purified GST-ZZ, MBP-PB1-ZZ WT and the respective mutants were also serially diluted in binding buffer and mixed into each reaction well at a concentration ranging from 400 nM to 3 mM. […] A nonlinear graph of p62 construct concentration-dependent polarization was calculated and drawn using GraphPad Prism 7 software.

[2] = tested on: degradation of R-BiP protein and p62 in HeLa cells; assay: Cycloheximide-chase protein degradation assay; type: cell-based; settings: HA-p62 and Ub-R-BiP transfected, chloroquine 30 μM, 16 hr, 50 μg/ml cycloheximide 16 hr, immunoblotting
Experimental: HeLa cells were cultured in DMEM (HyClone) containing 10% FBS (HyClone) and 1% penicillin/streptomycin (HyClone). Cells were transiently transfected with plasmids using Lipofectamine 2000 (Invitrogen) for mammalian expression. For protein degradation analysis, HeLa cells at 80% confluence were transiently transfected with plasmids expressing HA-p62 (either WT or mutants) and Ub-R-BiP. For the blocking of protein synthesis, cells were treated with 50 μg/ml cycloheximide (Sigma-Aldrich) for […] prior to cell harvesting. Cultured cells were pelleted by centrifugation and pellets were resuspended in phosphate-buffered saline (PBS). A volume of 150 μl was then mixed with 150 μl of 5X SDS-PAGE loading buffer (125 mM Tris-HCl pH 6.8, 4% SDS, 10% 2-mercaptoethanol and 20% glycerol). Each sample was heated for 5 min and 0.1 mg of total protein was subjected to Western blotting. Following antibodies were used in this study: rabbit monoclonal anti-p62 (Cell Signaling Technology, 8025, 1:1000), rabbit polyclonal anti-R-BiP (Abfrontier, AR02-PA0001, 1:1000), mouse monoclonal anti-β-actin (Sigma-Aldrich, A5441, 1:20,000), rat monoclonal anti-HA (Roche, 1867431, 1:20,000), mouse monoclonal anti-His-HRP (Santa Cruz, sc-8036 HRP, 1:20,000) and mouse monoclonal anti-MBP-HRP (NEB, E8038S, 1:2000).
Supplementary Figure 7. Degradation assay of R-BiP and p62 protein […]

T1 sequence (Q13501 1-181): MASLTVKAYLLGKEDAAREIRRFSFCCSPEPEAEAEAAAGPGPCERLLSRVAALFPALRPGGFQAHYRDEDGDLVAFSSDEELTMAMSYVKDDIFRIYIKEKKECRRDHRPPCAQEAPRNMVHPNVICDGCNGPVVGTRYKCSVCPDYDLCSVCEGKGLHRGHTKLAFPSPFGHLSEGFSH

| Binding (dissociation constant) ([1]; pH 4.5) | Binding (dissociation constant) ([1]; pH 5.0) | Binding (dissociation constant) ([1]; pH 8.5) | Binding (dissociation constant) ([1]; pH 9.0) | Compound | Degradation of R-BiP protein and p62 [2] |
| --- | --- | --- | --- | --- | --- |
| not detected | not detected | not detected | not detected | N=C(N)NCCC[C@H](N)C(=O)N[C@@H](CCC(=O)O)C(=O)N[C@@H](CCC(=O)O)C(=O)N[C@@H](CCC(=O)O)C(=O)N[C@@H](CC(=O)O)C(=O)N[C@@H](CCCCNC(=S)Nc1ccc2c(c1)C(=O)OC21c2ccc(O)cc2Oc2cc(O)ccc21)C(=O)O [R-BiP peptide] | – |
| – | – | – | – | CCN(CC)CCCC(C)Nc1ccnc2cc(Cl)ccc12 (centres unmarked) [chloroquine] | blocked; also recorded: not degraded |

Source: PMC6098011, “Insights into degradation mechanism of N-end rule substrates by p62/SQSTM1 autophagy adapter” (Nature Communications, 2018)
